Results on two molecules are retold here after patent US20260146044A1, “AROMATIC COMPOUND, PHARMACEUTICAL COMPOSITION CONTAINING SAME, AND USE THEREOF” (Increland, priority 2023, published 2026).

Like-named read-outs stand apart in the source and are kept apart here.

Data set [1] concerns secretion levels of IL-6 in PBMC cells. Put plainly: Inhibition of R848-induced IL-6 secretion in PBMC (IL-6 ELISA). Format: cell-based. Particulars: human PBMC, 20 h compound pre-incubation, 24 h stimulation. In outline:
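PBMC pre-treated with compounds (top 1 μM, 4-fold dilutions) in RPMI 1640/10% FBS for 20 h at 37 °C, then stimulated with R848 ([…] final) for another 24 h. Supernatant IL-6 by ELISA (OD450, standard curve); IC50 from dose-effect curve fit.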

Data set [2] deals with IMQ-induced psoriasis model. Put plainly: IMQ-induced psoriasis model, skin thickening and ear thickening. Particulars: BID, gavage; for IMQ-induced psoriatic ear thickening, P compared with the Model group: FIG. 2. Format: in vivo, BALB/c mice. On the procedure:
Male BALB/c mice aged 6-8 weeks were randomly grouped into 15 groups or 6 groups after 1 week of adaptive feeding: control group, imiquimod model group (i.e., Model group), clobetasol propionate group (i.e., CLO group), the compounds of the present invention: TM-57 ICL-004192 (3 mg/kg, 10 mg/kg, 30 mg/kg), TM-109ICL-004240 (3 mg/kg, 10 mg/kg, 30 mg/kg, 60 mg/kg), TM-101ICL-004250 (3 mg/kg, 10 mg/kg, 30 mg/kg, 60 mg/kg), with 5 mice per group, and the Control group, the imiquimod model group (i.e., the Model group), and the clobetasol propionate group (i.e., the CLO group). On day 0, each of the mice was unhaired on the back using a hair removal cream, with a hair removal area of 2.5 cm×1.5 cm. On the first day, IMQ cream was used for modeling, and a corresponding drug was administered by gavage for treatment. The compounds of the present invention were administered by gavage at corresponding doses twice daily in the morning and evening with an interval of 8 h between two administrations. 2 h after the first gavage on a same day, the IMQ cream was applied to the to-be-unhaired site on the back and the left ear of each of the mice, with doses of the IMQ cream administered to the to-be-unhaired site on the back and the left ear being 62.5 mg and 7.5 mg, respectively. 5 h after the IMQ cream was applied to the to-be-unhaired area on the back and the left ear of each of the mice in the CLO group, clobetasol propionate cream was applied once daily. The blank group and the IMQ group were administrated with a vehicle twice daily in the morning and evening with an interval of 8 h between two administrations. […]
Referring to the Psoriasis Area and Severity Index (PASI) scoring criteria, the psoriasis, erythema, and thickness of skin lesions on the back were scored from 0 to 4 every morning from day 1 of modeling, with the scoring criteria as shown in Table 1. […] The ear thickness of the left ear of the mouse was measured using a digital vernier caliper three times every morning from day 1, to obtain a mean value.

Data set [3] can be described thus: Pharmacokinetic experiment on SD rats (iv and ig). Format: in vivo. Particulars: Sprague-Dawley, rat, plasma; for Cmax: read-out: Peak plasma concentration Cmax; for bioavailability: ig 5.00 mg/kg vs iv 1.00 mg/kg, read-out: Oral bioavailability Fobs (%). On the procedure:
Pharmacokinetic experiment on SD rats: in this experiment, two administration modes: oral intragastric administration and tail vein injection were selected. Each of the compounds of the present patented invention was administered at an oral dose of 5 mg/kg at an administration volume of 10 mL/kg. […] Appropriate amounts of Solutol and H2O were proportionally added sequentially, and fully mixed ultrasonically by vortexing, to prepare a clear drug solution at 0.5 mg/mL. ICL004-protodrug was administered by intravenous injection at a dose of 1 mg/kg at an administration volume of 10 mL/kg. Right before use, an appropriate amount of the drug was accurately weighed, to prepare a final volume of 20% PEG 400 and 80% Saline. Appropriate amounts of PEG 400 and Saline were proportionally added sequentially, and fully mixed ultrasonically by vortexing, to prepare a clear drug solution at 0.1 mg/mL.
6 SD rats, each with body weight of 180-220 g, were randomly grouped into 2 groups. After fasting but with free access to water overnight, each […] in the first group was administered by gavage. 200 μL of blood was sampled from its eye socket into an anticoagulant tube respectively at each time point of 15 min, 30 min, 1 h, 2 h, 4 h, 6 h, 8 h, and 24 h after administration. Within one h, each of the blood samples was centrifuged at 10,000 rpm at 4° C. for 20 min (the sample was stored on an ice box prior to the centrifugation), and the supernatant (i.e., the plasma) was stored in a refrigerator at −20° C. for LC-MS/MS analysis. 200 μL of blood was sampled from the eye socket of each […] in the second group into an anticoagulant tube respectively at each time point of 5 min, 15 min, 30 min, 1 h, 2 h, 4 h, 8 h, and 24 h after administration by intravenous injection. Within one h, each of the blood samples was centrifuged at 10,000 rpm at 4° C. for 20 min (the blood sample was stored on an ice box prior to the centrifugation), and the supernatant, i.e., the plasma, was stored in a refrigerator at −20° C. for LC-MS/MS analysis.

For orientation: IC50 means the midpoint of a concentration-inhibition curve. The low end stands for higher potency, the high end for lower potency. The term AUC denotes the area under the concentration-time curve, a measure of exposure. Higher therefore signals more exposure. A word on the AUC(0-inf): it is the area under the concentration-time curve extrapolated to infinity. High values mean high exposure, low ones low exposure. In general, bioavailability refers to the share of a dose that reaches the circulation, judged against a reference dose that is usually intravenous. For the molecule `Cc1nn(C2CCC(=O)NC2=O)c2cccc(N3CC4CN(C[C@H]5CC[C@H](n6cc7cc(NC(=O)c8cnn9cccnc89)c(N8CCOCC8)cc7n6)CC5)CC4C3)c12` (stereo partly drawn) [TM-57], the 50% inhibitory concentration (IC50) in data set [1] was 3.43 nM. In addition, the “IMQ-induced psoriatic skin thickening, P compared with the Model group” value in data set [2] (30 mg/kg, FIG. 1) is below 0.01. In data set [2] (30 mg/kg), the “IMQ-induced psoriatic ear thickening, P compared with the Model group” value was below 0.0001. In addition, in data set [3] (iv, 1.00 mg/kg), the area under the curve (AUC) was 499 ng·h/mL, the AUC(0-inf) is 526 ng·h/mL and the Cmax stood at 225 ng/mL. For the same molecule, the bioavailability in data set [3] (po) worked out at 46.6%. In data set [3] (po, ig, 5.00 mg/kg), the AUC came to 580 ng·h/mL, the AUC(0-inf) was 1230 ng·h/mL and the Cmax worked out at 79.7 ng/mL.
As for `Cc1nn(C2CCC(=O)NC2=O)c2cncc(N3CCN(C[C@H]4CC[C@H](n5cc6cc(NC(=O)c7cnn8cccnc78)c(N7CCO[C@H](C)C7)cc6n5)CC4)CC3)c12` (stereo partly drawn) [TM-109], the “IMQ-induced psoriatic ear thickening, P compared with the Model group” value in data set [2] (60 mg/kg) is below 0.01. Further, in data set [3] (iv, 1.00 mg/kg), the exposure (AUC) came to 537 ng·h/mL, the total exposure AUC(0-inf) is 776 ng·h/mL and the Cmax came to 101 ng/mL. Further, in data set [3] (po), the bioavailability is 7.87%. For the same molecule, in data set [3] (po, ig, 5.00 mg/kg), the AUC came to 268 ng·h/mL, the area under the curve AUC(0-inf) came out at 306 ng·h/mL and the Cmax worked out at 23 ng/mL.
